Here are results for three molecules from US11878080B2, “Protein capsules” (Cambridge Enterprise Limited, priority 2014, dated 2024).

Data set [1] in a line: Release of encapsulated small molecules from capsules in fresh buffer (UV absorption of supernatant). The format is physicochemical. The method, then:
The release of the encapsulated species from the capsules was then studied. To this effect, the capsules were incubated in fresh buffer for an increasing period of time, removed the gels by centrifugation, and measured the concentration of released small molecules in the supernatant through their UV absorption. The results shown in FIG. 4 (d) reveal marked differences in the rate of release of the small molecules.
The loaded microgels were washed with 10 mM HCl at intervals of time from 10 min to 14 d. The solutes after each washing were analysed by UV spectroscopy.

Data set [2] can be described thus: Release kinetics of insulin, glucagon and lysozyme from protein microgel capsules (washing with DDW pH 7). The format is physicochemical. Conditions: compared to insulin and lysozyme proteins. The method, then: The efficiency of microfluidic techniques for protein capsules synthesis was studied by calculating the percentage of protein participating in capsule formation following the fluorescent signal of labelled protein in residue solutions. After the preparation of the microgel capsules was accomplished and the resulting capsules were washed, in order to remove unreacted species, and the concentration of unreacted protein was calculated following UV absorption and fluorescent signal of each protein. In order to study the release kinetics of insulin, glucagon and lysozyme protein microgel shells, the loaded samples were washed with DDW pH=7 within following intervals of time: 10 min., 30 min., 1 h., 3 h., 8 h., 12 h., 24 h., 48 h., 3 d., 7 d. Each washing solution was than analysed by UV spectroscopy and fluorimeter and exact concentration of the released species was detected.
Finally, whether the aggregation nature of the protein structures influenced the release kinetics of the encapsulated proteins was studied. […] This effect is attributed to the slow aggregation process of glucagon protein in the protein assembly. However, for the multishell structures, the proteins which localise at the core of the microgels tend to dissociate (release) only after the proteins of the outer shell are released. […]

For `CC1(C)S[C@@H]2[C@H](NC(=O)COc3ccccc3)C(=O)N2[C@H]1C(=O)O` [Penicillin V], in data set [1] (release from lysozyme capsules in fresh buffer), the “time to maximum release rate” value is listed as “one”.
For `Cc1ccc2c(c1)sc(-c1ccc(N(C)C)cc1)[n+]2C.[Cl-]` [ThT, Thioflavin T], the “extent of release from capsules” value in data set [1] (after one week) is on record as “not fully released”.
As for “glucagon: human glucagon (Gemini Bio-Products), protein assembled into and released from microgel capsules”, the “release rate of protein from capsules” value in data set [2] was “much faster”.
